Measurements published in PubChem BioAssay (NCI).
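Step 1: Grow cells in 96-well plates. Step 2: Expose to compound for 48 hours at 5 concentrations. Step 3: Interpolate endpoints linearly; if unreached, use highest concentration. GI50 is the concentration that inhibits growth by half. TGI denotes the concentration required for complete inhibition of growth.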

Columns and labels:
Test in all cases: NCI tumour cell line growth inhibition, 48 h
[1] = tested on: SF-539 CNS
[2] = tested on: T-47D breast
[3] = tested on: MOLT-4 leukemia
[4] = tested on: NCI-H522 lung
[5] = tested on: MDA-MB-231 breast
[6] = tested on: SNB-75 CNS
[7] = tested on: MCF7 breast
[8] = tested on: U251 CNS
[9] = tested on: OVCAR-4 ovarian
[10] = tested on: SF-268 CNS
[11] = tested on: A549 NSCLC
[12] = tested on: NCI-H226 lung
[13] = tested on: UACC-257 melanoma
[14] = tested on: HT29 colon
[15] = tested on: SF-295 CNS
[16] = tested on: RPMI-8226 leukemia
[17] = tested on: EKVX NSCLC
[18] = tested on: OVCAR-5 ovarian
[19] = tested on: HCC-2998 colon
[20] = tested on: SW-620 colon
[21] = tested on: OVCAR-3 ovarian
[22] = tested on: SK-MEL-28 melanoma
[23] = tested on: SNB-19 CNS
[24] = tested on: NCI/ADR-RES ovarian
[25] = tested on: UO-31 renal
[26] = tested on: PC-3 prostate
[27] = tested on: DU-145 prostate
[28] = tested on: SK-OV-3 ovarian
[29] = tested on: BT-549 breast
[30] = tested on: UACC-62 melanoma
[31] = tested on: K-562 leukemia
[32] = tested on: MDA-MB-435
[33] = tested on: 786-0 renal
[34] = tested on: RXF 393 renal
[35] = tested on: IGROV1 ovarian
[36] = tested on: NCI-H23 lung
[37] = tested on: HOP-62 NSCLC
[38] = tested on: TK-10 renal
[39] = tested on: OVCAR-8 ovarian
[40] = tested on: HCT-116 colon
[41] = tested on: HS 578T breast
[42] = tested on: KM12 colon
[43] = tested on: SK-MEL-2 melanoma
[44] = tested on: LOX IMVI melanoma
[45] = tested on: ACHN renal
[46] = tested on: SK-MEL-5 melanoma
[47] = tested on: HCT-15 colon
[48] = tested on: NCI-H460 lung
[49] = tested on: CAKI-1 renal
[50] = tested on: M14 melanoma
[51] = tested on: COLO 205 colon
[52] = tested on: HL-60(TB) leukemia
[53] = tested on: HOP-92 NSCLC
[54] = tested on: MALME-3M melanoma
[55] = tested on: SR leukemia
[56] = tested on: SN12C renal
[57] = tested on: CCRF-CEM leukemia
[58] = tested on: A498 renal

With `Nc1c(C(=O)Nc2ccccn2)sc2nc3c(cc12)CCCCCC3` the GI50 [1] was 0.58 µM, the TGI [1] was 3.07 µM and the GI50 [2] was 2.09 µM. For the same compound, the TGI [2] was 34.6 µM, the GI50 [3] was 0.392 µM and the TGI [3] was over 50 µM. The GI50 [4] was 1.79 µM, the TGI [4] was over 50 µM and the GI50 [5] was 2.5 µM. For the same compound, the TGI [5] was 15.2 µM, the GI50 [6] was 0.649 µM and the TGI [6] was 21.6 µM. It also gave a GI50 [7] of 0.179 µM, a TGI [7] of 10.2 µM and a GI50 [8] of 0.97 µM. It also gave a TGI [8] of 9.07 µM, a GI50 [9] of 4.21 µM and a TGI [9] of 15.8 µM. For the same compound, the GI50 [10] was 2.48 µM, the TGI [10] was 22.6 µM and the GI50 [11] was 1.65 µM. It also gave a TGI [11] of 9.17 µM, a GI50 [12] of 3.15 µM and a TGI [12] of 18.5 µM. The GI50 [13] was 7.88 µM, the TGI [13] was 30.7 µM and the GI50 [14] was 0.36 µM. For the same compound, the TGI [14] was 5.67 µM, the GI50 [15] was 0.426 µM and the TGI [15] was 5.43 µM. For the same compound, the GI50 [16] was 0.915 µM, the TGI [16] was 30 µM and the GI50 [17] was 4.1 µM. The TGI [17] was 23.3 µM, the GI50 [18] was 2.67 µM and the TGI [18] was 17.9 µM. The GI50 [19] was 1.61 µM, the TGI [19] was 33.1 µM and the GI50 [20] was 0.389 µM. It also gave a TGI [20] of 22.7 µM, a GI50 [21] of 0.626 µM and a TGI [21] of 2.47 µM. For the same compound, the GI50 [22] was 1.63 µM, the TGI [22] was 19.6 µM and the GI50 [23] was 1.22 µM. For the same compound, the TGI [23] was 13.8 µM, the GI50 [24] was 0.57 µM and the TGI [24] was 41.4 µM. For the same compound, the GI50 [25] was 4.56 µM, the TGI [25] was 22.2 µM and the GI50 [26] was 1.54 µM. The TGI [26] was 12.2 µM, the GI50 [27] was 1.18 µM and the TGI [27] was 5.77 µM. For the same compound, the GI50 [28] was 1.91 µM, the TGI [28] was 15.2 µM and the GI50 [29] was 0.524 µM. For the same compound, the TGI [29] was 18 µM, the GI50 [30] was 0.376 µM and the TGI [30] was 10.3 µM. It also gave a GI50 [31] of 0.204 µM, a TGI [31] of 38.5 µM and a GI50 [32] of 0.143 µM. The TGI [32] was 0.509 µM, the GI50 [33] was 0.776 µM and the TGI [33] was 6.24 µM. The GI50 [34] was 0.903 µM, the TGI [34] was 4.07 µM and the GI50 [35] was 1.95 µM. It also gave a TGI [35] of 13.9 µM, a GI50 [36] of 2.25 µM and a TGI [36] of over 50 µM. The GI50 [37] was 1.55 µM, the TGI [37] was 11 µM and the GI50 [38] was 2.87 µM. For the same compound, the TGI [38] was 10.3 µM, the GI50 [39] was 2.21 µM and the TGI [39] was 15.8 µM. It also gave a GI50 [40] of 0.225 µM, a TGI [40] of 7.14 µM and a GI50 [41] of 0.935 µM. The TGI [41] was 12.4 µM, the GI50 [42] was 0.511 µM and the TGI [42] was over 50 µM. The GI50 [43] was 0.965 µM, the TGI [43] was 9.83 µM and the GI50 [44] was 2.97 µM. It also gave a TGI [44] of 41.9 µM, a GI50 [45] of 2.41 µM and a TGI [45] of 10.9 µM. It also gave a GI50 [46] of 0.906 µM, a TGI [46] of 7.22 µM and a GI50 [47] of 0.254 µM. For the same compound, the TGI [47] was 11.1 µM, the GI50 [48] was 1.12 µM and the TGI [48] was 6.62 µM. It also gave a GI50 [49] of 1.56 µM, a TGI [49] of 9.33 µM and a GI50 [50] of 0.295 µM. For the same compound, the TGI [50] was 3.05 µM, the GI50 [51] was 1.49 µM and the TGI [51] was 13.6 µM. The GI50 [52] was 0.14 µM, the TGI [52] was 1.43 µM and the GI50 [53] was 1.86 µM. It also gave a TGI [53] of 11.4 µM, a GI50 [54] of 1.26 µM and a TGI [54] of 13.8 µM. It also gave a GI50 [55] of 0.197 µM, a TGI [55] of over 50 µM and a GI50 [56] of 3.17 µM. For the same compound, the TGI [56] was 37.3 µM, the GI50 [57] was 0.355 µM and the TGI [57] was over 50 µM.

With `CC(N)=O.[Cl][Pt][Cl].[NH-]c1ccn(C2OC(CO)C(O)C2O)c(=O)n1` (stereo not given) the TGI [1] was over 100 µM, the TGI [2] was over 100 µM and the TGI [58] was over 100 µM. The TGI [3] was over 100 µM, the TGI [4] was over 100 µM and the TGI [5] was over 100 µM. It also gave a TGI [6] of over 100 µM, a TGI [7] of over 100 µM and a TGI [8] of over 100 µM. The TGI [9] was over 100 µM, the TGI [10] was over 100 µM and the TGI [11] was over 100 µM. It also gave a TGI [12] of over 100 µM, a TGI [13] of over 100 µM and a TGI [14] of over 100 µM. It also gave a TGI [15] of over 100 µM, a TGI [16] of over 100 µM and a TGI [17] of over 100 µM. The TGI [18] was over 100 µM, the TGI [20] was over 100 µM and the TGI [21] was over 100 µM. For the same compound, the TGI [22] was over 100 µM, the TGI [23] was over 100 µM and the TGI [24] was over 100 µM. It also gave a TGI [25] of over 100 µM, a TGI [26] of over 100 µM and a TGI [27] of over 100 µM. For the same compound, the TGI [28] was over 100 µM, the TGI [29] was over 100 µM and the TGI [30] was over 100 µM. It also gave a TGI [31] of over 100 µM, a TGI [32] of over 100 µM and a TGI [33] of over 100 µM. The TGI [34] was over 100 µM, the TGI [35] was over 100 µM and the TGI [36] was over 100 µM. The TGI [37] was over 100 µM, the TGI [38] was over 100 µM and the TGI [39] was over 100 µM. It also gave a TGI [40] of over 100 µM, a TGI [41] of over 100 µM and a TGI [42] of over 100 µM. The TGI [43] was over 100 µM, the TGI [44] was over 100 µM and the TGI [45] was over 100 µM. It also gave a TGI [46] of over 100 µM, a TGI [47] of over 100 µM and a TGI [48] of over 100 µM. For the same compound, the TGI [49] was over 100 µM, the TGI [50] was over 100 µM and the TGI [51] was over 100 µM. It also gave a TGI [53] of over 100 µM, a TGI [54] of over 100 µM and a TGI [55] of over 100 µM. For the same compound, the TGI [56] was over 100 µM and the TGI [57] was over 100 µM.
